Results from US5464617A, “β-lactam compounds” (Hoffmann-La Roche Inc., priority 1994, dated 1995).
In brackets after ≈: the same amount, converted by molar mass. Where a name gives a salt, the structure may show the parent alone.

Tests used:
E. coli 1346 = assay: Antibacterial activity of the products per se, serial dilution method in liquid medium (Test E); format: cell-based; conditions: product per se; for MIC E. coli 1346 (E): Table 4, test E; for MIC E. coli 1346: Table 3, liquid medium
Text: The antibacterial activity of the products per se is illustrated on the basis of Table 3 hereinafter, the minimum inhibitory concentration […] in vitro against E. coli 1346 being determined using the serial dilution method in liquid medium: […]

[1] = system: Citrobacter freundii 1982; assay: MIC in vitro of a 1:4 combination of ceftriaxone with a compound of formula I (Test D); format: cell-based; conditions: 1:4 combination of ceftriaxone with the compound; for MIC C. freundii 1982 (D): Table 4, test D; for MIC C. freundii 1982: Table 2
Method: The minimum inhibitory concentration in vitro ([…]) of a 1:4 combination of ceftriaxone with a compound of formula I against Citrobacter freundii 1982 was measured and compiled in Table 2 hereinafter.

| Compound | MIC E. coli 1346 (E) (E. coli 1346) [µg/mL] | MIC C. freundii 1982 (D) [1] [µg/mL] | MIC E. coli 1346 (E. coli 1346) [µg/mL] | MIC C. freundii 1982 [1] [µg/mL] |
| --- | --- | --- | --- | --- |
| CNC(=O)Cn1nnnc1SCC1=C(C(=O)O)N2C(=O)[C@@H]3[C@H]2[C@@H](CN3C(C)=O)O1 [32(f), (1aS,3aR, 6bS)-2-Acetyl-5-(1-methyl-carbamoylmethyl-1H-tetrazol-5-ylsulphanylmethyl)-1-oxo-1,1a,2,3,3a,6b-hexahydro-4-oxa-2,6a-diazacyclobut[cd]indene-6-carboxylic acid sodium salt] | 4 | 8 | – | – |
| COc1cc(CNC(=O)N2C[C@H]3CC(Sc4nnnn4C)=C(C(=O)O)N4C(=O)[C@@H]2[C@@H]34)on1 [3(h), (1aS,3aR,6bR)-2-(3-Methoxy-isoxazol-5-ylmethylcarbamoyl)-5-(1-methyl-1H-tetrazol-5-ylsulphanyl)-1-oxo-1a,2,3,3a,4,6b-hexahydro-1H-2,6a-diazacyclobut[cd]indene-6-carboxylic acid sodium salt] | – | – | 16 | 2 |
| CC(=O)N1C[C@H]2CC(SCC(N)=O)=C(C(=O)O)N3C(=O)[C@@H]1[C@@H]23 [3(ak), (1 aS,3aR,6bR)-2-Acetyl-5-carbamoylmethylsulphanyl-1-oxo-1a,2,3,3a,4,6b-hexahydro-1H-2,6a-diazacyclobut[cd]indene-6-carboxylic acid sodium salt] | 16 | 4 | – | – |
| NC(=O)OCC1=C(C(=O)O)N2C(=O)[C@@H]3[C@H]2[C@H](C1)CN3C(=O)Cc1cccs1 [58(b), (1aS, 3aR,6bR)-5-Carbamoyloxymethyl-1-oxo-2-(thiophen-2-yl-acetyl)-1a,2,3,3a,4,6b-hexahydro-1H-2,6a-diazacyclobut[cd]indene-6-carboxylic acid sodium salt] | 16 | 0.5 | – | – |
| Cc1nnc(SCC2=C(C(=O)O)N3C(=O)[C@@H]4[C@H]3[C@H](C2)CN4C(=O)CSc2ccncc2)s1 [65(c), (1aS,3aR,6 bR)-5-(S-Methyl-1,3,4-thiadiazol-2-ylsulphanylmethyl)-1-oxo-2-(pyridin-4-ylsulphanylacetyl)-1a,2,3,3a,4,6b-hexahydro-1H-2,6a-diazacyclobut[cd]indene-6-carboxylic acid sodium salt] | 2 | 1 | – | – |
| CC(=O)OCC1=C(C(=O)O)N2C(=O)[C@@H]3[C@H]2[C@H](C1)CN3C(=O)C(F)(F)F [25(d), (1aS,3aR,6bR)-5-Acetoxymethyl-2-trifluoroacetyl-1-oxo-1a,2,3,3a,4,6b-hexahydro-1H-2,6a-diazacyclobut[cd]indene-6-carboxylic acid sodium salt] | 4 | 0.5 | – | – |
| Cc1nnc(SCC2=C(C(=O)[O-])N3C(=O)[C@@H]4[C@H]3[C@H](C2)CN4C(=O)C[n+]2cccc(C(N)=O)c2)s1 [65(d), (1aS,3aR,6bR)-2-(3-Carbamoyl-pyridin-1-ylioacetyl)-5-(5-methyl-1,3,4-thiadiazol-2-ylsulphanylmethyl)-1-oxo-1a,2,3,3a,4,6b-hexahydro-1H-2,6a-diazacyclobut[cd]indene-6-carboxylic acid sodium salt] | 16 | 2 | – | – |
| NC(=O)c1ccc(NC(=O)N2C[C@H]3OC(CSc4ccncc4)=C(C(=O)O)N4C(=O)[C@@H]2[C@@H]34)cc1 [31(e), (1aS,3aR,6bS)-2-(4-Carbamoyl-phenylcarbamoyl)-1-oxo-5-(pyridin-4-ylsulphanylmethyl)-1,1a,2,3,3a,6 b-hexahydro-4-oxa-2,6a-diazacyclobut[cd]indene-6-carboxylic acid sodium salt] | > 32 | 0.5 | – | – |
| Cn1nnnc1SCC1=C(C(=O)O)N2C(=O)[C@@H]3[C@H]2[C@H](C1)CN3C(=O)NCCC(=O)OC(C)(C)C [18(f), (1aS,3aR,6bR)-2-(2-t-Butoxycarbonyl-ethylcarbarmoyl)-5-(1-methyl-1H-tetrazol-5-ylsulphanylmethyl)-1-oxo-1a,2,3,3a,4,6b-hexahydro-1H-2,6a-diazacyclobut[cd]indene-6-carboxylic acid sodium salt] | 4 | 1 | – | – |
| Cn1nnnc1SC1=C(C(=O)O)N2C(=O)[C@@H]3[C@H]2[C@H](C1)CN3C(=O)NCc1ccc(S(N)(=O)=O)cc1 [3(g), (1aS,3aR,6bR)-5-(1-Methyl-1H-tetrazol-5-ylsulphanyl)-1-oxo-2-(4-sulphamoyl-benzylcarbamoyl)-1a,2,3,3a,4,6b-hexahydro-1H-2,6a-diazacyclobut[cd]indene-6-carboxylic acid sodium salt] | – | – | 16 | 0.5 |
| CS(=O)(=O)OC1=C(C(=O)O)N2C(=O)[C@@H]3[C@H]2[C@H](C1)CN3C(=O)Nc1ccc(C(N)=O)cc1 [9(b), (1aS,3aR,6bR)-2-(4-Carbamoyl-phenylcarbamoyl)-5-methylsulphonyloxy-1-oxo-1a, 2,3,3a,4,6b-hexahydro-1H-2,6a-diazacyclobut[cd]indene-6-carboxylic acid sodium salt] | – | – | 0.5 | 0.25 |
| CNC(=O)Cn1nnnc1SCC1=C(C(=O)O)N2C(=O)[C@@H]3[C@H]2[C@H](C1)CN3C(=O)C(F)(F)F [74(b), (1aS,3aR,6bR)-5-(1-Methylcarbamoylmethyl-1H-tetrazol-1-ylsulphanylmethyl)-1-oxo-2-trifluoroacetyl-1a,2,3,3a,4,6b-hexahydro-1H-2,6a-diazacyclobut[cd]indene-6-carboxylic acid sodium salt] | 1 | 1 | – | – |
| [N-]=[N+]=NCC1=C(C(=O)O)N2C(=O)[C@@H]3[C@H]2[C@H](C1)CN3C(=O)C(F)(F)F [83(b), (1aS,3aR,6bR)-5-Azidomethyl-2-trifluoroacetyl-1-oxo-1a,2,3,3a,4,6b-hexahydro-1H-2,6a-diazacyclobut[cd]indene-6-carboxylic acid sodium salt] | 0.5 | 0.5 | – | – |
| Cc1nnc(SCC2=C(C(=O)O)N3C(=O)[C@@H]4[C@H]3[C@H](C2)CN4C(=O)C(F)(F)F)s1 [65(b), (1aS,3aR,6bR)-5-(S-Methyl-1,3,4-thiadiazol-2-ylsulphanylmethyl)-1-oxo-2-trifluoroacetyl-1a,2,3,3a,4,6b-hexahydro-1H-2,6a-diazacyclobut[cd]indene-6-carboxylic acid sodium salt] | 2 | 1 | – | – |
| Cn1c(O)nnc1SCC1=C(C(=O)O)N2C(=O)[C@H]3NC[C@@H](S1)[C@H]32 [40(d), (1aS,3aR,6bS)-5-(5-Hydroxy-4-methyl-4H-[1,2,4]-triazol-3-ylsulphanylmethyl)-1-oxo-4-thia-1,1a,2,3,3a,6b-hexahydro-2,6a-diazacyclobut[cd]indene-6-carboxylic acid] | 8 (≈ 22.5 µM) | 2 | – | – |

Results, then the molecule that gave them:

| MIC E. coli 1346 (E) (E. coli 1346) [µg/mL] | MIC C. freundii 1982 (D) [1] [µg/mL] | MIC E. coli 1346 (E. coli 1346) [µg/mL] | MIC C. freundii 1982 [1] [µg/mL] | Compound |
| --- | --- | --- | --- | --- |
| 2 | 2 | – | – | CC(=O)N1C[C@H]2CC(COC(=O)NC3CC3)=C(C(=O)O)N3C(=O)[C@@H]1[C@@H]23 [94(a), (1aS,3aR,6bR)-2-Acetyl-5-cyclopropylcarbamoyloxymethyl-1-oxo-1a,2,3,3a,4,6b-hexahydro-1H-2,6a-diazacyclobut[cd]indene-6-carboxylic acid sodium salt] |
| 32 | 16 | – | – | Cn1nnnc1SC1=C(C(=O)O)N2C(=O)[C@@H]3[C@H]2[C@H](C1)CN3C(=O)C(F)(F)F [Example 3(ab), (1aS,3aR,6bR)-5-(1-Methyl-1H-tetrazol-5-ylsulphanyl)-1-oxo-2-trifluoroacetyl-1a,2,3,3a,4,6b-hexahydro-1H-2,6a-diazacyclobut[cd]indene-6-carboxylic acid sodium salt] |
| 4 | 2 | – | – | O=C(Nc1ccc(O)cc1)OCC1=C(C(=O)O)N2C(=O)[C@H]3NC[C@@H](C1)[C@H]32 [Example 89, (1aS,3aR,6bR)-5-(4-Hydroxy-phenylcarbamoyloxymethyl)-1-oxo-1a,2,3,3a,4,6b-hexahydro-1H-2,6a-diazacyclobut[cd]indene-6-carboxylic acid trifluoroacetate] |
| 2 | 1 | – | – | NC(=O)OCC1=C(C(=O)O)N2C(=O)[C@@H]3[C@H]2[C@H](C1)CN3CC(=O)Nc1ccc(O)cc1 [Example 59(a), (1aS,3aR,6bR)-5-Carbamoyloxymethyl-2-(4-hydroxyphenylcarbamoylmethyl)-1-oxo-I a,2,3,3a,4,6b-hexahydro-1H-2,6a-diazacyclobut[cd]indene-6-carboxylic acid sodium salt] |
| – | – | 128 | 0.25 | Cn1nnnc1SC1=C(C(=O)O)N2C(=O)[C@@H]3[C@H]2[C@H](C1)CN3C(=O)Nc1ccc(O)cc1 [Example 3(a), (1aS,3aR,6bR)-2-(4-Hydroxy-phenylcarbamoyl)-5-(1-methyl-1H-tetrazol-5-ylsulphanyl)-1-oxo-1a,2,3,3a,4,6b-hexahydro-1H-2,6a-diazacyclobut[cd]indene-6-carboxylic acid sodium salt] |
| 16 (≈ 40.6 µM) | 0.5 | – | – | CCOC(=O)N1C[C@H]2CC(CSc3nnnn3C)=C(C(=O)O)N3C(=O)[C@@H]1[C@@H]23 [Example 62, (1aS,3aR,6bR)-5-(1-Methyl-1H-tetrazol-5-ylsulphanylmethyl)-1-oxo-1a,2,3,3a,4,6b-hexahydro-1H-2,6a-diazacyclobut[cd]indene-2,6-dicarboxylic acid 2-ethyl ester] |
| 1 | 2 | – | – | CN1CCN(C(=O)OCC2=C(C(=O)O)N3C(=O)[C@H]4NC[C@@H](C2)[C@H]43)CC1 [Example 103, (1aS,3aR,6bR)-5-(4-Methyl-piperazin-1-ylcarbonyloxymethyl)-1-oxo-1a,2,3,3a,4,6b-hexahydro-1H-2,6a-diazacydobut[cd]indene-6-carboxylic acid trifluoroacetate] |
